In ChEMBL document CHEMBL4811306, “Fused benzo[1,3]thiazine-1,2,3-triazole hybrids: Microwave-assisted one-pot synthesis, in vitro antibacterial, antibiofilm, and in silico ADME studies” (2021):
In brackets after ≈: the same amount, converted by molar mass.

Assays:
Type in all cases: functional
Bacillus subtilis [1] = assay: Antibacterial activity against Bacillus subtilis MTCC121 assessed as inhibition of bacterial growth by standard broth microdilution method
Staphylococcus aureus [2] = assay: Antibacterial activity against Staphylococcus aureus MTCC96 assessed as inhibition of bacterial growth by standard broth microdilution method
[3] = test system: Staphylococcus epidermidis; assay: Antibacterial activity against Staphylococcus epidermidis MTCC435 assessed as inhibition of bacterial growth by standard broth microdilution method
Escherichia coli [4] = assay: Antibacterial activity against Escherichia coli MTCC739 assessed as inhibition of bacterial growth by standard broth microdilution method
Pseudomonas aeruginosa [5] = assay: Antibacterial activity against Pseudomonas aeruginosa assessed as inhibition of bacterial growth by standard broth microdilution method
Klebsiella pneumoniae = assay: Antibacterial activity against Klebsiella pneumoniae assessed as inhibition of bacterial growth by standard broth microdilution method
Bacillus subtilis [6] = assay: Antibiofilm activity against Bacillus subtilis MTCC121 assessed as inhibition of biofilm formation
Staphylococcus aureus [7] = assay: Antibiofilm activity against Staphylococcus aureus MTCC96 assessed as inhibition of biofilm formation
[8] = test system: Staphylococcus epidermidis; assay: Antibiofilm activity against Staphylococcus epidermidis MTCC435 assessed as inhibition of biofilm formation
Pseudomonas aeruginosa [9] = assay: Antibiofilm activity against Pseudomonas aeruginosa assessed as inhibition of biofilm formation
Escherichia coli [10] = assay: Antibiofilm activity against Escherichia coli MTCC739 assessed as inhibition of biofilm formation
Bacillus subtilis [11] = assay: Potency index, ratio of ciprofloxacin MIC to test compound MIC for antibacterial activity against Bacillus subtilis MTCC121
[12] = test system: Staphylococcus epidermidis; assay: Potency index, ratio of ciprofloxacin MIC to test compound MIC for antibacterial activity against Staphylococcus epidermidis MTCC435

MIC (Bacillus subtilis [1]) [µg/mL] | MIC (Staphylococcus aureus [2]) [µg/mL] | MIC [3] [µg/mL] | MIC (Escherichia coli [4]) [µg/mL] | MIC (Pseudomonas aeruginosa [5]) [µg/mL] | MIC (Klebsiella pneumoniae) [µg/mL] | SMILES | BIC (Bacillus subtilis [6]) [µg/mL] | BIC (Staphylococcus aureus [7]) [µg/mL] | BIC [8] [µg/mL] | BIC (Pseudomonas aeruginosa [9]) [µg/mL] | BIC (Escherichia coli [10]) [µg/mL] | Ratio (Bacillus subtilis [11]) | Ratio [12]
12.5 (≈ 41.7 µM) | 6.25 (≈ 20.8 µM) | 25 (≈ 83.4 µM) | > 50 | 50 (≈ 167 µM) | > 50 | Clc1ccccc1-c1nnn2c1-c1ccccc1SC2 | 26.1 | 10.7 | 21.2 | 48 | – | – | –
50 (≈ 169 µM) | > 50 | > 50 | > 50 | > 50 | > 50 | COc1ccc(-c2nnn3c2-c2ccccc2SC3)cc1 | – | – | – | – | – | – | –
50 (≈ 161 µM) | > 50 | 50 (≈ 161 µM) | > 50 | > 50 | > 50 | Cc1cccc(-c2nnn3c2-c2ccccc2S(=O)(=O)C3)c1 | – | – | – | – | – | – | –
6.25 (≈ 19.1 µM) | 6.25 (≈ 19.1 µM) | 12.5 (≈ 38.2 µM) | 50 (≈ 153 µM) | 50 (≈ 153 µM) | 25 (≈ 76.4 µM) | COc1cccc(-c2nnn3c2-c2ccccc2S(=O)(=O)C3)c1 | 3.5 | 4.2 | 24.8 | 47.3 | 52.3 | – | –
25 (≈ 84.6 µM) | 25 (≈ 84.6 µM) | 50 (≈ 169 µM) | 50 (≈ 169 µM) | > 50 | > 50 | COc1cccc(-c2nnn3c2-c2ccccc2SC3)c1 | – | – | – | – | – | – | –
50 (≈ 168 µM) | 25 (≈ 84.1 µM) | 25 (≈ 84.1 µM) | > 50 | > 50 | > 50 | O=S1(=O)Cn2nnc(-c3ccccc3)c2-c2ccccc21 | – | – | – | – | – | – | –
12.5 (≈ 33.2 µM) | 25 (≈ 66.4 µM) | 50 (≈ 133 µM) | 6.25 (≈ 16.6 µM) | 25 (≈ 66.4 µM) | 50 (≈ 133 µM) | O=S1(=O)Cn2nnc(-c3ccc(Br)cc3)c2-c2ccccc21 | 23.9 | 28.1 | 57.6 | 20.4 | 10.9 | – | –
> 50 | > 50 | > 50 | > 50 | > 50 | > 50 | Cc1cccc(-c2nnn3c2-c2ccccc2SC3)c1 | – | – | – | – | – | – | –
3.12 (≈ 9.4 µM) | 6.25 (≈ 18.8 µM) | 3.12 (≈ 9.4 µM) | 50 (≈ 151 µM) | 25 (≈ 75.4 µM) | 50 (≈ 151 µM) | O=S1(=O)Cn2nnc(-c3ccccc3Cl)c2-c2ccccc21 | 4.15 | 5.88 | 2.94 | 22.8 | 48 | 2 | 2
25 (≈ 80.3 µM) | 50 (≈ 161 µM) | 25 (≈ 80.3 µM) | 25 (≈ 80.3 µM) | 50 (≈ 161 µM) | 50 (≈ 161 µM) | Cc1ccc(-c2nnn3c2-c2ccccc2S(=O)(=O)C3)cc1 | – | – | – | – | – | – | –
> 50 | 50 (≈ 145 µM) | > 50 | 25 (≈ 72.6 µM) | > 50 | 50 (≈ 145 µM) | Brc1ccc(-c2nnn3c2-c2ccccc2SC3)cc1 | – | – | – | – | – | – | –
25 (≈ 76.4 µM) | 50 (≈ 153 µM) | 25 (≈ 76.4 µM) | > 50 | > 50 | > 50 | COc1ccc(-c2nnn3c2-c2ccccc2S(=O)(=O)C3)cc1 | – | – | – | – | – | – | –
50 (≈ 179 µM) | > 50 | 50 (≈ 179 µM) | > 50 | 50 (≈ 179 µM) | 50 (≈ 179 µM) | Cc1ccc(-c2nnn3c2-c2ccccc2SC3)cc1 | – | – | – | – | – | – | –
6.25 (≈ 18.9 µM) | 3.12 (≈ 9.42 µM) | 6.25 (≈ 18.9 µM) | – | 1.56 (≈ 4.71 µM) | 3.12 (≈ 9.42 µM) | O=C(O)c1cn(C2CC2)c2cc(N3CCNCC3)c(F)cc2c1=O [CIPROFLOXACIN] | 5.5 | 4.88 | 2.24 | 2.75 | 4.29 | – | –
